We go through 2 molecules from patent publication US10392630B2, “Plants having increased tolerance to herbicides” (BASF AGRO B.V., priority 2013, dated 2019).

For orientation: IC50 means the concentration that gives 50% inhibition. Higher therefore signals a need for much substance.

What all share (test): biochemical
For experiment [1], the target named is T1, Amaranthus mutant PPO (AMARE) (Amaranthus tuberculatus, UniProt Q0NZW9, F420L/R128L).
T1 sequence (Q0NZW9 1-534 R128L/F420L): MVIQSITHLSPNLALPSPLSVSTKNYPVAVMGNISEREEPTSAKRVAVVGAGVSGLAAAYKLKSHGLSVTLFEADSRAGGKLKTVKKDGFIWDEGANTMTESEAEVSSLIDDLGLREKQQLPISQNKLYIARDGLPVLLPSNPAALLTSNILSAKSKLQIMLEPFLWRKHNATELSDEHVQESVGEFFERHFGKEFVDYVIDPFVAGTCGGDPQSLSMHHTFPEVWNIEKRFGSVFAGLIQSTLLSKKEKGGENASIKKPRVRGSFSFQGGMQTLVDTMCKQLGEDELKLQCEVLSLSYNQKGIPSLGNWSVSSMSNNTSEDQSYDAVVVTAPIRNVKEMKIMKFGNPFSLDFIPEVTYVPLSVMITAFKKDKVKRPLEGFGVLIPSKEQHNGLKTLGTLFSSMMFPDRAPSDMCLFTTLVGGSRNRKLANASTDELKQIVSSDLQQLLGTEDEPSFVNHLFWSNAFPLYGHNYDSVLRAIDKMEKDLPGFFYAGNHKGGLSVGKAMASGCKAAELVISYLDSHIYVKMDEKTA

Experiment [2] deals with T2, Amaranthus mutant PPO (AMARE) (Amaranthus tuberculatus, UniProt Q0NZW9, F420M/R128L).
T2 sequence (Q0NZW9 1-534 R128L/F420M): T1 sequence (Q0NZW9 1-534 R128L/F420L) with L420M

For experiment [3], the target named is T3, Amaranthus mutant PPO (AMARE) (Amaranthus tuberculatus, UniProt Q0NZW9, F420L/R128I).
T3 sequence (Q0NZW9 1-534 R128I/F420L): T1 sequence (Q0NZW9 1-534 R128L/F420L) with L128I

Experiment [4] deals with T4, Amaranthus mutant PPO (AMARE) (Amaranthus tuberculatus, UniProt Q0NZW9, R128L).
T4 sequence (Q0NZW9 1-534 R128L): T1 sequence (Q0NZW9 1-534 R128L/F420L) with L420F

Experiment [5] addresses T5, Amaranthus mutant PPO (AMARE) (Amaranthus tuberculatus, UniProt Q0NZW9, F420M).
T5 sequence (Q0NZW9 1-534 F420M): T1 sequence (Q0NZW9 1-534 R128L/F420L) with L128R, L420M

Where a chain is given by its changes, count along the chain named.

For the molecule `CC(C)N(C)S(=O)(=O)NC(=O)c1cc(-n2c(=O)cc(C(F)(F)F)n(C)c2=O)c(F)cc1Cl` [saflufenacil], the IC50 in experiment [1] is over 10 µM; in experiment [2], over 10 µM; in experiment [3], over 10 µM; in experiment [4], 0.222 µM; in experiment [5] it was 0.677 µM.
`C#CCN1C(=O)C(F)(F)Oc2cc(F)c(-n3c(=O)n(C)c(=S)n(C)c3=O)cc21` [BAS 850H]: the results for the IC50 in experiment [1], in experiment [2] and in experiment [3] were 1.71 µM, 0.246 µM and 0.466 µM, respectively.
